CC(C)[C@H](N)C(=O)O
Conditions	solubility (mole fraction)
in DMF, 293.15 K	1.25e-06
in DMF, 303.25 K	2.49e-06
in DMF, 313.25 K	4.36e-06
in DMF, 323.15 K	7.48e-06
in DMF, 333.25 K	1.06e-05
in DMF, 343.25 K	1.49e-05
in acetone, 293.15 K	4.96e-07
in acetone, 302.95 K	9.91e-07
in acetone, 313.35 K	1.98e-06
in acetone, 323.35 K	2.97e-06
in acetone, 328.15 K	3.97e-06
in ethanol, 293.15 K	1.18e-05
in ethanol, 303.75 K	2.36e-05
in ethanol, 313.15 K	3.69e-05
in ethanol, 323.15 K	5.34e-05
in ethanol, 333.25 K	7.62e-05
in ethanol, 343.25 K	0.000109
in isopropanol, 293.45 K	2.56e-06
in isopropanol, 303.05 K	4.61e-06
in isopropanol, 313.35 K	7.17e-06
in isopropanol, 323.25 K	1.08e-05
in isopropanol, 333.05 K	1.54e-05
in isopropanol, 343.35 K	2.1e-05
in water, 293.55 K	0.00884
in water, 303.05 K	0.00938
in water, 313.15 K	0.0101
in water, 323.05 K	0.0109
in water, 333.25 K	0.0117
in water, 343.15 K	0.0129

Reference: BigSolDB 2.1
